According to patent US12714696B2, “Low dose fluralaner compositions for protection against parasitic invertebrate pest” (VIRBAC, priority 2019, dated 2026):
Where two headings read alike, the source gives them in different places.

Experiments:
[1] = Pharmacokinetics after repeated oral administration of 250 μg/kg and 35 μg/kg of fluralaner in dogs after feeding; assay type: in vivo, beagle dogs; settings: for concentration at 168 h / concentration at 192 h / concentration at 216 h / concentration at 240 h / concentration at 384 h / concentration at 528 h / concentration at 624 h / concentration at 720 h / half-life / Cmax: beagle, dog, plasma, po
Procedure: The first objective is to obtain the pharmacokinetic parameters after repeated oral administration of […] and 35 μg/kg of fluralaner in dogs after feeding.
The second objective is to investigate the pharmacodynamics between the fluralaner plasmatic dose and the effectiveness against ticks. • IVP: Investigational Veterinary Product, is pure Fluralaner+DMSO (250 μg/kg on Days 0 to 3 (0.25 mL/kg), then 35 μg/kg on Days 4 to 9 (0.35 mL/kg), then 600 μg/kg on Day 11) • Control product is DMSO (0.25 mL/kg on Days 0 to 3, then 0.35 mL/kg on Days 4 to 9)
On Days 0, 1, 2 and 3, all dogs assigned to group 2 received the Investigational Veterinary Product. On Days 0 to 3 all dogs in group 1 received the control product at a volume equal to the dogs in group 2. Dogs assigned to group 1 received the control product and served as Placebo controls. The quantity of Investigational Veterinary Product and control product administered was calculated according to the dog's individual body weight measured on Day −1. […]
On days of administration of pre-Investigational Veterinary Product or Control Product, dogs were fed (the same dog food) approximately half of their normal daily ration 30 minutes to 35 minutes prior to administration. Food consumed by the time of administration was calculated and recorded. The remainder of their normal daily ration was fed immediately after administration.
The PK parameters of fluralaner were calculated using a non-compartmental approach.
The following rules were applied for the calculation of the PK parameters: • All the plasma concentrations, validated by the bioanalytical laboratory, were used for the PK analysis. • The actual blood sampling times were used throughout. • Concentrations below the Limit of Quantification (LOQ) value were considered as zero from time zero (pre-dose) up to the time at which the first quantifiable concentration above the LOQ value was observed. Concentrations below the LOQ value between two quantifiable concentrations were considered as missing. Trailing concentrations below the LOQ value were not used in calculations.
Cmax the observed maximum concentration in plasma measured after dosing.
λz the terminal rate constant (λz) was estimated by log-linear regression analysis on data points visually assessed, to be on the terminal log-linear phase. For the slope of the terminal elimination phase to be accepted as reliable, the following criteria were used: • the terminal data points were apparently randomly distributed about a single straight line (on visual inspection), • a minimum of three data points, including the last measured data point and excluding Cmax, were available for the regression.
t1/2 the terminal plasma half-life (t1/2) was calculated according to the following equation: […]

[2] = Adverse event observation, oral study against ticks; assay type: in vivo, beagle dogs; settings: oral 250/35/600 μg/kg regimen, dogs
Procedure: Dogs assigned to group 1 received the control product and served as Placebo controls. Dogs were observed hourly±15 minutes for four hours after administration on Day 0 and once daily two hours±15 minutes after Investigational Veterinary Product or control product administration on Days 1, 2 and 3. Observations were conducted for each individual dog.

[3] = Comparison of plasma concentration simulated from experimental data with literature data; design: species or system dogs; settings: simulation from experimental data (Table 6)
[4] = oral 250/35/600 μg/kg regimen, dogs, n=6, read-out: fluralaner concentration levels, Mean
[5] = oral 250/35/600 μg/kg regimen, dogs, n=6, read-out: fluralaner concentration levels, Median
[6] = oral 250/35/600 μg/kg regimen, dogs, n=6, read-out: fluralaner concentration levels, Minimum
[7] = oral 250 μg/kg Days 0-3, 35 μg/kg Days 4-9, 600 μg/kg Day 11, dogs, read-out: fluralaner concentration levels, individual animal
[8] = oral 250/35/600 μg/kg regimen, dogs, n=6, read-out: fluralaner concentration levels, GeoMean
[9] = oral 250/35/600 μg/kg regimen, dogs, n=6, read-out: fluralaner concentration levels, Maximum

Structure (SMILES): Cc1cc(C2=NOC(c3cc(Cl)cc(Cl)c3)(C(F)(F)F)C2)ccc1C(=O)NCC(=O)NCC(F)(F)F (stereo not shown) [fluralaner, Fluralaner]
- concentration at 168 h [1, 4]: 518 ng/mL
- concentration at 168 h [1, 5]: 520 ng/mL
- concentration at 168 h [1, 6]: 461 ng/mL
- concentration at 192 h [1, 7]: 542 ng/mL
- concentration at 192 h [1, 8]: 508 ng/mL
- concentration at 192 h [1, 9]: 558 ng/mL
- concentration at 192 h [1, 4]: 509 ng/mL
- concentration at 192 h [1, 5]: 520 ng/mL
- concentration at 192 h [1, 6]: 455 ng/mL
- concentration at 216 h [1, 7]: 477 ng/mL
- concentration at 216 h [1, 8]: 515 ng/mL
- concentration at 216 h [1, 9]: 650 ng/mL
- concentration at 216 h [1, 4]: 518 ng/mL
- concentration at 216 h [1, 5]: 485 ng/mL
- concentration at 216 h [1, 6]: 468 ng/mL
- concentration at 240 h [1, 7]: 386 ng/mL
- concentration at 240 h [1, 8]: 469 ng/mL
- concentration at 240 h [1, 9]: 724 ng/mL
- concentration at 240 h [1, 4]: 483 ng/mL
- concentration at 240 h [1, 5]: 422 ng/mL
- concentration at 240 h [1, 6]: 368 ng/mL
- concentration at 384 h [1, 7]: 561 ng/mL
- concentration at 384 h [1, 8]: 693 ng/mL
- concentration at 384 h [1, 9]: 1000 ng/mL
- concentration at 384 h [1, 4]: 714 ng/mL
- concentration at 384 h [1, 5]: 654 ng/mL
- concentration at 384 h [1, 6]: 523 ng/mL
- concentration at 528 h [1, 8]: 327 ng/mL
- concentration at 528 h [1, 9]: 517 ng/mL
- concentration at 528 h [1, 4]: 339 ng/mL
- concentration at 528 h [1, 5]: 320 ng/mL
- concentration at 528 h [1, 6]: 235 ng/mL
- concentration at 624 h [1, 8]: 254 ng/mL
- concentration at 624 h [1, 9]: 403 ng/mL
- concentration at 624 h [1, 4]: 263 ng/mL
- concentration at 624 h [1, 5]: 244 ng/mL
- concentration at 624 h [1, 6]: 182 ng/mL
- concentration at 720 h [1, 7]: 300 ng/mL
- concentration at 720 h [1, 8]: 262 ng/mL
- concentration at 720 h [1, 9]: 300 ng/mL
- concentration at 720 h [1, 4]: 265 ng/mL
- concentration at 720 h [1, 5]: 280 ng/mL
- concentration at 720 h [1, 6]: 187 ng/mL
- half-life ([1]; oral 250 μg/kg Days 0-3, 35 μg/kg Days 4-9, 600 μg/kg Day 11, dogs, read-out: mean terminal half-life (converted)): 15.5 days
- Cmax ([1]; oral 250/35/600 μg/kg regimen, dogs, read-out: Cmax, range): 561 to 1000 ng/mL
- Cmax ([1]; oral 250/35/600 μg/kg regimen, dogs, read-out: mean Cmax): 733 ng/mL
- half-life ([1]; oral 250/35/600 μg/kg regimen, dogs, read-out: terminal half-life, range): 9.47 to 20.6 days
- steady state concentrations ([1]; with the 35 μg/kg per day dose application from Day 4 to Day 9): reached
- Adverse Events as a result of the product [2]: No Adverse Events
- AUCextra [3]: 68221.98 µg·days/L
- AUClast [3]: 483104.77 µg·days/L
- AUCtot [3]: 551326.76 µg·days/L
- t1/2 [3]: 9.56 days
- tmax [3]: 3 days
- Cmax ([3]; compared with literature oral 50.0 mg/kg values): 31994.2 ng/mL
